“And” between values parts separate entries of the source, which are not always exact repeats. Identical values can stand only once.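 A five-concentration, 48-hour dose response in 96-well plates underlies each endpoint, interpolated linearly between surrounding concentrations. Abbreviation: GI50, concentration required for 50% inhibition of growth. Definition used: TGI = concentration required for complete inhibition of growth.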
Columns and labels:
Test in all cases: inhibition of tumour cell growth, NCI panel, 48 h
DMS 114 small cell lung = system: DMS 114 small cell lung
SNB-78 CNS = system: SNB-78 CNS
LXFL 529 NSCLC = system: LXFL 529 NSCLC
HOP-18 NSCLC = system: HOP-18 NSCLC
KM20L2 colon = system: KM20L2 colon
DLD-1 colon = system: DLD-1 colon
XF 498 CNS = system: XF 498 CNS
RXF-631 renal = system: RXF-631 renal

| Compound | GI50 (DMS 114 small cell lung) | TGI (DMS 114 small cell lung) | TGI (SNB-78 CNS) [µM] | TGI (LXFL 529 NSCLC) | TGI (HOP-18 NSCLC) | TGI (KM20L2 colon) | TGI (DLD-1 colon) | TGI (XF 498 CNS) [µM] | TGI (RXF-631 renal) [µM] | GI50 (SNB-78 CNS) [µM] |
| --- | --- | --- | --- | --- | --- | --- | --- | --- | --- | --- |
| COc1cc(C2c3cc4c(cc3[C@@H](NCCN3CCOCC3)C3COC(=O)[C@H]23)OCO4)cc(OC)c1O (some centres not stated) | 1.43 µM and 2.95 µM | 5.05 µM and 8.98 µM | > 75 | 34.1 µM and > 17.5 µM | 32.9 µM and > 17.5 µM | 16.7 µM and > 17.5 µM | 22.8 µM and > 17.5 µM |  |  |  |
| COc1ccc2nc3cc(Cl)ccc3c(SCC(=O)Nc3ccccc3-c3ccccc3NC(=O)CSc3c4ccc(Cl)cc4nc4ccc(OC)cc34)c2c1 |  | > 100 µM | > 100 | > 100 µM | > 100 µM | > 100 µM | > 100 µM | > 100 |  |  |
| CCCCCCCCC/C=C1\CCC(CN(C)C)C1=O (configuration not stated) |  | 4.87 µM | 5.03 | 2.64 µM |  | 4.66 µM | 4.28 µM |  | 4.53 |  |
| CC(Oc1ccc(OCC2CCCCC2)cc1)C(=O)NCc1ccco1 (configuration not stated) |  | 56.6 µM | > 100 | > 100 µM | > 100 µM |  | > 100 µM | > 100 |  |  |
| NC(=O)NC12CC3CC(CC(F)(C3)C1)C2 |  | > 100 µM | > 100 | > 100 µM |  | > 100 µM | > 100 µM | > 100 | > 100 |  |
| CC(=O)O[C@H]1CCC2[C@@H]3CCC4c5nonc5CC[C@]4(C)C3CC[C@@]21C (some centres not stated) | > 100 µM | > 100 µM | > 100 | > 10 µM | > 10 µM | > 10 µM | > 10 µM |  |  | > 100 |
| Nc1nc(-c2ccco2)cc(-c2ccc(CO)o2)n1 |  | > 100 µM | > 100 | > 100 µM |  | > 100 µM |  | > 100 |  |  |
| N#CNC(=NCCc1c[nH]c2ccccc12)Oc1ccccc1 |  | > 100 µM | > 100 | > 100 µM |  | 49.8 µM | > 100 µM | > 100 |  |  |

Source: PubChem BioAssay (NCI)
